Results on 3 compounds are retold here after ChEMBL document CHEMBL1201862, “PubChem BioAssay data set” (2004).

For test [1], the target named is T1, RNA-binding protein pos-1 (Caenorhabditis elegans, UniProt G5EF15).
T1 sequence (G5EF15 whole entry): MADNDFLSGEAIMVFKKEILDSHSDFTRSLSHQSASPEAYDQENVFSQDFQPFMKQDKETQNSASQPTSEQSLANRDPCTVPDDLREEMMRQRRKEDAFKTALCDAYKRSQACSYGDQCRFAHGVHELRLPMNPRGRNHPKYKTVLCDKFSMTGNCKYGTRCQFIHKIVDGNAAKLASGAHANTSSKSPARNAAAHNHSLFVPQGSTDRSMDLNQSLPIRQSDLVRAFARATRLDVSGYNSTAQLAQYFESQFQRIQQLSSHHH
Nature of the test: disruptors of C. elegans POS-1 RNA interaction – biochemical, fluorescence polarization, dose response (AID 1964).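 Also: purified POS-1 fused to maltose binding protein made in E. coli; potency of compounds blocking POS-1 binding to fluorescent RNA.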 A general note: Fluorescence polarisation rises when a labelled molecule tumbles more slowly, as on binding a larger partner.

The target in another test is Genome polyprotein (dengue virus type 2, UniProt P29990). Nature of the test: flavivirus cap methylation enzyme inhibition – biochemical, confirmation dose response, primary screen (AID 588689). The format is functional.
Genome polyprotein, sequence (P29990 2492-3391 limits assumed): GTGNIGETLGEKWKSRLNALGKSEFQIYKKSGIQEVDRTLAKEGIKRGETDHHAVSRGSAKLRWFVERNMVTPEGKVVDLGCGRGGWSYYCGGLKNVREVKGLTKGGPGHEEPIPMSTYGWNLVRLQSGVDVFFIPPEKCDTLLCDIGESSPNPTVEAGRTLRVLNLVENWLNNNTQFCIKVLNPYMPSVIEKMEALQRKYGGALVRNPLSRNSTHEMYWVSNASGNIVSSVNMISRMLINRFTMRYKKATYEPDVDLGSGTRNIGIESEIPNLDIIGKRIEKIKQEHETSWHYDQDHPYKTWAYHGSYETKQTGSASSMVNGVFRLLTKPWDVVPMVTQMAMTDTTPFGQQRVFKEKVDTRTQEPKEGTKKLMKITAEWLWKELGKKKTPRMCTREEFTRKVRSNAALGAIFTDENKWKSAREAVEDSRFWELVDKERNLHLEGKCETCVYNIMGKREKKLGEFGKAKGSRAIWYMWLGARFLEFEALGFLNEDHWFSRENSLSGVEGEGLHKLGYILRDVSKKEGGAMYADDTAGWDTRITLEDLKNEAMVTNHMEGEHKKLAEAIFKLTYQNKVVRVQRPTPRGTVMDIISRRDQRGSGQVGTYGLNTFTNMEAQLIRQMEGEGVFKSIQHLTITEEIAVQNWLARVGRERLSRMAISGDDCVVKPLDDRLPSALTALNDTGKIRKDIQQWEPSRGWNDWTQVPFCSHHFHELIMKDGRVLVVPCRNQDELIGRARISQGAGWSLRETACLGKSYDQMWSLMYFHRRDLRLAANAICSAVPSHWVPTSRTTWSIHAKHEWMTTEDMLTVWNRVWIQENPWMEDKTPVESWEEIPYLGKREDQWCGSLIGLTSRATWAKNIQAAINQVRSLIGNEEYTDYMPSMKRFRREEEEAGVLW
The target of test [2] is T2, Long-chain-fatty-acid--AMP ligase FadD28 (Mycobacterium tuberculosis, UniProt P9WQ59).
T2 sequence (P9WQ59 whole entry): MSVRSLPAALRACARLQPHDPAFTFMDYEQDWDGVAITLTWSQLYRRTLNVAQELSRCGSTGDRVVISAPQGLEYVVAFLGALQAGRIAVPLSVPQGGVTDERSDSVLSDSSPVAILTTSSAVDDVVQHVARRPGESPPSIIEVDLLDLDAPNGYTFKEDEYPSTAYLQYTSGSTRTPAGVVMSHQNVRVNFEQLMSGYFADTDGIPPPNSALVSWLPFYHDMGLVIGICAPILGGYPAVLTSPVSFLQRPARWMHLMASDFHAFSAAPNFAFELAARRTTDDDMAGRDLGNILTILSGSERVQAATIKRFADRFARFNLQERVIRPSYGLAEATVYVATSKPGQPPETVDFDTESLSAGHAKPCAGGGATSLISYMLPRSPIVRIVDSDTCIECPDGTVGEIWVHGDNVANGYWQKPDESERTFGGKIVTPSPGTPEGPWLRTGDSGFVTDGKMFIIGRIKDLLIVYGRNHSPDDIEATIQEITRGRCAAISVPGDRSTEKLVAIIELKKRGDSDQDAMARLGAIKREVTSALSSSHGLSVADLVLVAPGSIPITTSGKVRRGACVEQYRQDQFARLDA
The test is described as follows: Fluorescence polarization aasay to screen for inhibitors that compete for the binding of FadD28 to a bisubstrate Measured in Biochemical System Using Plate Reader - 2147-01_Inhibitor_Dose_CherryPick_Activity. The format is functional, Mycobacterium tuberculosis H37Rv.

In test [3] the target is 1-phosphatidylinositol 4,5-bisphosphate phosphodiesterase gamma-1 (Homo sapiens, UniProt P19174). The test is described as follows: Counterscreen for inhibitors of phospholipase C isozymes (PLC-B3): Fluorescence-based biochemical high throughput dose response assay to identify inhibitors of phospholipase C isozymes (PLC-gamma1). In general terms: A counterscreen serves to expose hits that act by an unwanted route or on another target.

The target in test [4] is 1-phosphatidylinositol 4,5-bisphosphate phosphodiesterase beta-3 (Homo sapiens, UniProt Q01970). The test is described as follows: Fluorescence-based biochemical high throughput dose response assay to identify inhibitors of phospholipase C isozymes (PLC-B3).
Test [5] has as its target Serine/threonine-protein kinase PLK3 (Homo sapiens, UniProt Q9H4B4). The format is functional.
For test [6], the target named is Protein kinase C delta type (Homo sapiens, UniProt Q05655). Type of test: functional.
Test [7] concerns the target Serine/threonine-protein kinase PLK4 (Homo sapiens, UniProt O00444). Type of test: functional.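 Also: PLK4 measured as one member of a kinome-wide kinase profiling panel.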
For test [8], the target named is Ribosomal protein S6 kinase beta-1 (Homo sapiens, UniProt P23443). Type of test: functional.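 Also: measured as one member of a kinome-wide profiling panel.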
Test [9] has as its target MAP kinase-activated protein kinase 2 (Homo sapiens, UniProt P49137). The format is functional.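 Also: measured as one member of a kinome-wide kinase panel.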
Test [10] concerns the target Casein kinase II subunit alpha (Homo sapiens, UniProt P68400). The format is functional.
Test [11] concerns the target Tyrosine-protein kinase ITK/TSK (Homo sapiens, UniProt Q08881). The format is functional.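 Also: affinity for ITK measured as one member of a broad kinase panel profiling binding across the kinome.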
Test [12] addresses Non-receptor tyrosine-protein kinase TYK2 (Homo sapiens, UniProt P29597). The format is functional.
Test [13] concerns the target Protein kinase C gamma type (Homo sapiens, UniProt P05129). The format is functional.
Test [14] deals with MAP kinase-activated protein kinase 3 (Homo sapiens, UniProt Q16644). The format is functional.
The target of test [15] is Mitogen-activated protein kinase 1 (Homo sapiens, UniProt P28482). The format is functional.
Test [16] concerns the target Calcium/calmodulin-dependent protein kinase type 1 (Homo sapiens, UniProt Q14012). The format is functional.
Test [17] addresses Fibroblast growth factor receptor 3 (Homo sapiens, UniProt P22607). Type of test: functional.
Test [18] deals with Serine/threonine-protein kinase PLK1 (Homo sapiens, UniProt P53350). Type of test: functional.
Serine/threonine-protein kinase PLK1, sequence (P53350 whole entry): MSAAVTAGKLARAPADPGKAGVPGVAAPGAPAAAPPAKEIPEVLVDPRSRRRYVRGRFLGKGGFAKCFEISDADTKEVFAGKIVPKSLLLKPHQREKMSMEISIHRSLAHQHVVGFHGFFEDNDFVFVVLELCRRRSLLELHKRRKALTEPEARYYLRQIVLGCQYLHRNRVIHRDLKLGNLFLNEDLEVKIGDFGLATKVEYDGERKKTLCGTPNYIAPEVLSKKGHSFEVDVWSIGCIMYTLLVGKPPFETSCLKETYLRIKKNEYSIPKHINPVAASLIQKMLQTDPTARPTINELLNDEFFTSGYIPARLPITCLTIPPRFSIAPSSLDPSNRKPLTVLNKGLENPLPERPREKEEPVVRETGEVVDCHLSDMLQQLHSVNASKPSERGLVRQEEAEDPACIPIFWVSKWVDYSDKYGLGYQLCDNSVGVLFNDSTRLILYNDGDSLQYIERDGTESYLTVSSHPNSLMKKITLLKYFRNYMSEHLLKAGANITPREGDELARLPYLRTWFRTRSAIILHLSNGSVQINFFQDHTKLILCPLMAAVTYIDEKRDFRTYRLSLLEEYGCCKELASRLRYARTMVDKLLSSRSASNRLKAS
The target in test [19] is Receptor tyrosine-protein kinase erbB-4 (Homo sapiens, UniProt Q15303). Type of test: functional.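 Also: ERBB4 member of a kinome-wide kinase profiling panel.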
Test [20] addresses Protein kinase C theta type (Homo sapiens, UniProt Q04759). Nature of the test: Navigating the Kinome. Panel member name: PRKCQ. The format is functional.
The target in test [21] is Dual specificity mitogen-activated protein kinase kinase 1 (Homo sapiens, UniProt Q02750). The test is described as follows: Navigating the Kinome. Panel member name: MAP2K1. The format is functional.
Test [22] has as its target Proto-oncogene tyrosine-protein kinase receptor Ret (Homo sapiens, UniProt P07949). Type of test: functional.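 Also: measured within a kinome-wide profiling panel, RET as the panel member.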
The target of test [23] is Tyrosine-protein kinase BTK (Homo sapiens, UniProt Q06187). The format is functional.
In test [24] the target is Casein kinase I isoform alpha (Homo sapiens, UniProt P48729). The format is functional.
Test [25] concerns the target Serine/threonine-protein kinase TAO1 (Homo sapiens, UniProt Q7L7X3). The format is functional.
The target of another test is Activated CDC42 kinase 1 (Homo sapiens, UniProt Q07912). Nature of the test: Navigating the Kinome. Panel member name: ACK1. The format is functional.
Test [26] addresses G protein-coupled receptor kinase 5 (Homo sapiens, UniProt P34947). Nature of the test: Navigating the Kinome. Panel member name: GPRK5. Type of test: functional.
The next test addresses Focal adhesion kinase 1 (Homo sapiens, UniProt Q05397). The format is functional.
The target in test [27] is Cyclin-dependent kinase 9 (Homo sapiens, UniProt P50750). Type of test: functional.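 Also: value from the CDK9 entry of a kinome-spanning kinase panel.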
In test [28] the target is Mitogen-activated protein kinase kinase kinase kinase 4 (Homo sapiens, UniProt O95819). The format is functional.
The target of test [29] is Dual specificity mitogen-activated protein kinase kinase 2 (Homo sapiens, UniProt P36507). Nature of the test: Navigating the Kinome. Panel member name: MAP2K2. Type of test: functional.

Molecules are shown by their SMILES. Activity calls are given as the source filed them.

G protein-coupled receptor kinase 5, sequence (P34947 whole entry): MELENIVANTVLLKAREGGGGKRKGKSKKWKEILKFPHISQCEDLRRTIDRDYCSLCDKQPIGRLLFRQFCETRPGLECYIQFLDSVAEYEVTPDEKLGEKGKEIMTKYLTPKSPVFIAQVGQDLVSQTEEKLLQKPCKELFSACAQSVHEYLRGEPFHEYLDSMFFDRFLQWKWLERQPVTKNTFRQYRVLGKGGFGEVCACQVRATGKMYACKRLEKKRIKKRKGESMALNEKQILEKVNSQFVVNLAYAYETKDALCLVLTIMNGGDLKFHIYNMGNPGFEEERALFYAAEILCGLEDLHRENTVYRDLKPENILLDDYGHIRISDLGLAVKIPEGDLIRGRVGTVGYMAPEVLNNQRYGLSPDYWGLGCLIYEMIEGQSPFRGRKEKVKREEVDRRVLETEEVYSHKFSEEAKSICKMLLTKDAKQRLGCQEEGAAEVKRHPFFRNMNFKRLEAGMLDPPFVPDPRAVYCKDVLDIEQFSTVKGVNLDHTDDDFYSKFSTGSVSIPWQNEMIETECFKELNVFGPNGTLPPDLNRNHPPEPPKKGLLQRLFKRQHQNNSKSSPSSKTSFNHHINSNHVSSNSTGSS
Serine/threonine-protein kinase PLK3, sequence (Q9H4B4 whole entry): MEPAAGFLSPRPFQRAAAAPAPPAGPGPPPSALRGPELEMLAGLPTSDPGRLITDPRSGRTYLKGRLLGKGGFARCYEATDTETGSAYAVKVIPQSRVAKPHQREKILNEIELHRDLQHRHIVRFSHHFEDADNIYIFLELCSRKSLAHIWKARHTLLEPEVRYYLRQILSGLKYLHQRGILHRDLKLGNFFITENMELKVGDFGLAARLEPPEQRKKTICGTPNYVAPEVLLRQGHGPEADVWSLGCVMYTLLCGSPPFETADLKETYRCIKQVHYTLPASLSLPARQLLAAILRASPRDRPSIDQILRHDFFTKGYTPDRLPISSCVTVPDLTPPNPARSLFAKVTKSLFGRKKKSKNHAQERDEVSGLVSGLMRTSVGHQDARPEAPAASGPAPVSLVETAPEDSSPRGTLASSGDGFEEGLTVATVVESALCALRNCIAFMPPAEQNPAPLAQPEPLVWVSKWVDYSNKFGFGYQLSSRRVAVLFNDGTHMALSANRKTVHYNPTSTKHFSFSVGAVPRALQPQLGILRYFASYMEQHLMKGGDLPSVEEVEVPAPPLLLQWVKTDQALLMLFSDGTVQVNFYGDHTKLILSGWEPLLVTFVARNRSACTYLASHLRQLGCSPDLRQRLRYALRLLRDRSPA
Non-receptor tyrosine-protein kinase TYK2, sequence (P29597 whole entry): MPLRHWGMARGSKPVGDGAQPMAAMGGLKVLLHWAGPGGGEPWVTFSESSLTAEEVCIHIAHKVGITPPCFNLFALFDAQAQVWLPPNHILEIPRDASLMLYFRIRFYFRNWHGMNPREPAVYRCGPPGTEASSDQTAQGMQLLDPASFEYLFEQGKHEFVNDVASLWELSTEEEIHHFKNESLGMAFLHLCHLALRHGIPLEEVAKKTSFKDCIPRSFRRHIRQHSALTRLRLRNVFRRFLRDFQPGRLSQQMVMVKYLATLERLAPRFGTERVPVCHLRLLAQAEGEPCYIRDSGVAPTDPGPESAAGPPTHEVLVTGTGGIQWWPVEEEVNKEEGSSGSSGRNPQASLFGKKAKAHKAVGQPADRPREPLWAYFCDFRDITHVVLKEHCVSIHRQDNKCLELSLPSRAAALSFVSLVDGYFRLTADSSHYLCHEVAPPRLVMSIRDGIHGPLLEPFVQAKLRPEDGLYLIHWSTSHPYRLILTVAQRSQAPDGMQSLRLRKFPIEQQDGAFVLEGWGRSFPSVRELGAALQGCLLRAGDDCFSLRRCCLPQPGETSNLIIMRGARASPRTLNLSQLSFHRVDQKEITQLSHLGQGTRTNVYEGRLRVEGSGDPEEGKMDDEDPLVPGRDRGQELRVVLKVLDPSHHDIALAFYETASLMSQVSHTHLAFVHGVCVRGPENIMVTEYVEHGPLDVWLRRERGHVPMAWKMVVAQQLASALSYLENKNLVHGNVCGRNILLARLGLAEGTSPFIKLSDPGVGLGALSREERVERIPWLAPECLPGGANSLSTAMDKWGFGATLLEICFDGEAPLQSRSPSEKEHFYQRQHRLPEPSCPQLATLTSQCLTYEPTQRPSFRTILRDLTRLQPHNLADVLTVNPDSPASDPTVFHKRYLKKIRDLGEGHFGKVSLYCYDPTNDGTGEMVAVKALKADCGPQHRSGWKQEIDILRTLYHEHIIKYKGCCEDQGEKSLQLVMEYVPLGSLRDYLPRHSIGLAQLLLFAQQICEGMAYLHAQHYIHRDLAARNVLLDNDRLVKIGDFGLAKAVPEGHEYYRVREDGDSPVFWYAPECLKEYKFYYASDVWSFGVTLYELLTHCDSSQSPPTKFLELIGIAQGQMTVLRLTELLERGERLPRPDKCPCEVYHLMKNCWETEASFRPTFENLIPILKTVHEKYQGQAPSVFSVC
Focal adhesion kinase 1, sequence (Q05397 whole entry): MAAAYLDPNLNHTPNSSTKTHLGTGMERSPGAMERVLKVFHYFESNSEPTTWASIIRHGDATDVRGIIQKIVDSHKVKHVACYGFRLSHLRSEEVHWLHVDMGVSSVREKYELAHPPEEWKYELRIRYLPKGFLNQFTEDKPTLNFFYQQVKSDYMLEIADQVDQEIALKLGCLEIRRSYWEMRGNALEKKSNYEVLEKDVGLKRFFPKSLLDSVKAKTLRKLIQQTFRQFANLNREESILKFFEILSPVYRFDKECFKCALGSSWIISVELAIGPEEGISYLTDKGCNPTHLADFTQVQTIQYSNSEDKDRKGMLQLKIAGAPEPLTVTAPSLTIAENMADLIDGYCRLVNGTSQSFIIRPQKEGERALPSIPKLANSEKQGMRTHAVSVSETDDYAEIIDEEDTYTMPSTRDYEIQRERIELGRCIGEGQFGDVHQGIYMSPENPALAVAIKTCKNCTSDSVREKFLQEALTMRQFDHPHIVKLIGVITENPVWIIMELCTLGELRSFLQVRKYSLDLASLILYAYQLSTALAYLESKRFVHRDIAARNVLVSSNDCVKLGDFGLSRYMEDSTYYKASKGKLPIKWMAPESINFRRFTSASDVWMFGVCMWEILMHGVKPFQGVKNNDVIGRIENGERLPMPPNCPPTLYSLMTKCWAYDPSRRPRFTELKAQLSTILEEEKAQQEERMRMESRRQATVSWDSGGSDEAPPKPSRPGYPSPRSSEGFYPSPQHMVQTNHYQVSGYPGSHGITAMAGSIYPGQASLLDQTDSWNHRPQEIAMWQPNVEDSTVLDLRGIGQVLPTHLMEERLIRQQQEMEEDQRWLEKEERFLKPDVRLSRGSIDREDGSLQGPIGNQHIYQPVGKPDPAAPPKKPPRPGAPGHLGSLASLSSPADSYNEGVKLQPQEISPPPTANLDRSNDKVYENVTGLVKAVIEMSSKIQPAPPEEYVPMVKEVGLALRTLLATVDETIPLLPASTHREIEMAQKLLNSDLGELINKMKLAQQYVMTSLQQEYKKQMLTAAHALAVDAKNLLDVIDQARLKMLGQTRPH

The term EC50 denotes the concentration giving half of the maximal effect. A word on the IC50: it is the point on the concentration scale where inhibition reaches its midpoint. In general, AC50 refers to the concentration giving half of the maximal activity seen. Regarding `O=C(O)c1[nH]c2ccccc2c1C(c1cc(Cl)cc([N+](=O)[O-])c1O)c1c(C(=O)O)[nH]c2ccccc12`, the EC50 in [1] was 14.9 µM (active). Also, the IC50 on Genome polyprotein is 9.77 µM (active); in test [3] it was 26.6 µM (inactive); in [4], > 122 µM (inactive). In addition, in test [2], the AC50 was 7.15 µM (active).
One may read the Ki as a dissociation constant, usually derived from enzyme kinetics or from competition with a known ligand. Regarding `CCOC(=O)c1cn(-c2ccc(O)cc2C)c2cc(-c3ccncc3)ccc2c1=O`, the Ki was > 7.94 µM (inactive) in test [5]; 0.501 µM (active) in test [6]; > 3.98 µM (inactive) in test [7]; > 6.31 µM (inactive) in test [8]; > 7.94 µM (inactive) in [9]; > 6.31 µM (inactive) in [10]. Further, the Ki is > 1.58 µM (inactive) in [11]; > 2 µM (inactive) in [12]; > 7.94 µM (inactive) in test [13]; > 10 µM (inactive) in [14]; > 7.94 µM (inactive) in [15]; > 7.94 µM (inactive) in test [16]. In addition, the Ki was > 2 µM (inactive) in test [17], > 7.94 µM (inactive) in test [18] and > 3.98 µM (inactive) in test [19].
Consider `Cc1cc(=O)[nH]nc1-c1ccc(NC(=O)Nc2cc(C(F)(F)F)ccc2F)c(Cl)c1`, for which the Ki was > 2.51 µM (inactive) in test [20]; > 3.16 µM (inactive) in test [21]; 0.00316 µM (active) in test [22]; > 6.31 µM (inactive) in test [23]; > 3.98 µM (inactive) in [24]; > 6.31 µM (inactive) in [25]. For the same compound, the Ki on Activated CDC42 kinase 1 is > 3.98 µM (inactive); in [26], > 3.98 µM (inactive); on Focal adhesion kinase 1 it was > 6.31 µM (inactive); in test [27], > 1.58 µM (inactive); in test [28], > 5.01 µM (inactive); in test [29], > 3.98 µM (inactive).
